Laboratory results: PubChem BioAssay (NCI)
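Dose response: 5 concentrations. Exposure: 48 h. Format: 96-well plates. Endpoint: linear interpolation; highest concentration if not reached. GI50 is the concentration that inhibits growth by half. Definition used: TGI = concentration required for complete inhibition of growth.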

Columns and labels:
Experiment in all cases: NCI anticancer screen, dose series, 48 h
786-0 renal = system: 786-0 renal
A498 renal = system: A498 renal
A549 NSCLC = system: A549 NSCLC
BT-549 breast = system: BT-549 breast
CAKI-1 renal = system: CAKI-1 renal
CCRF-CEM leukemia = system: CCRF-CEM leukemia
COLO 205 colon = system: COLO 205 colon
DU-145 prostate = system: DU-145 prostate
EKVX NSCLC = system: EKVX NSCLC
HCC-2998 colon = system: HCC-2998 colon
HCT-116 colon = system: HCT-116 colon
HCT-15 colon = system: HCT-15 colon
HL-60(TB) leukemia = system: HL-60(TB) leukemia
HOP-62 NSCLC = system: HOP-62 NSCLC
HS 578T breast = system: HS 578T breast
HT29 colon = system: HT29 colon
IGROV1 ovarian = system: IGROV1 ovarian
K-562 leukemia = system: K-562 leukemia
KM12 colon = system: KM12 colon
LOX IMVI melanoma = system: LOX IMVI melanoma
M14 melanoma = system: M14 melanoma
MALME-3M melanoma = system: MALME-3M melanoma
MCF7 breast = system: MCF7 breast
MDA-MB-231 breast = system: MDA-MB-231 breast
MDA-MB-435 = system: MDA-MB-435
MDA-MB-468 breast = system: MDA-MB-468 breast
MOLT-4 leukemia = system: MOLT-4 leukemia
NCI-H23 lung = system: NCI-H23 lung
NCI-H460 lung = system: NCI-H460 lung
NCI-H522 lung = system: NCI-H522 lung
OVCAR-3 ovarian = system: OVCAR-3 ovarian
OVCAR-4 ovarian = system: OVCAR-4 ovarian
OVCAR-5 ovarian = system: OVCAR-5 ovarian
OVCAR-8 ovarian = system: OVCAR-8 ovarian
PC-3 prostate = system: PC-3 prostate
RPMI-8226 leukemia = system: RPMI-8226 leukemia
RXF 393 renal = system: RXF 393 renal
SF-268 CNS = system: SF-268 CNS
SF-295 CNS = system: SF-295 CNS
SF-539 CNS = system: SF-539 CNS
SK-MEL-2 melanoma = system: SK-MEL-2 melanoma
SK-MEL-28 melanoma = system: SK-MEL-28 melanoma
SK-MEL-5 melanoma = system: SK-MEL-5 melanoma
SK-OV-3 ovarian = system: SK-OV-3 ovarian
SN12C renal = system: SN12C renal
SNB-19 CNS = system: SNB-19 CNS
SNB-75 CNS = system: SNB-75 CNS
SR leukemia = system: SR leukemia
SW-620 colon = system: SW-620 colon
T-47D breast = system: T-47D breast
TK-10 renal = system: TK-10 renal
U251 CNS = system: U251 CNS
UACC-257 melanoma = system: UACC-257 melanoma
UO-31 renal = system: UO-31 renal

SMILES: COC[C@@H](CC(C)C)N=C1N/C(=C\c2ccc3ncsc3c2)C(=O)N1C
- GI50 (786-0 renal): 3.48 µM
- TGI (786-0 renal): > 100 µM
- GI50 (A498 renal): 1.2 µM
- TGI (A498 renal): 4.97 µM
- GI50 (A549 NSCLC): 2.05 µM
- TGI (A549 NSCLC): > 100 µM
- GI50 (BT-549 breast): 2.01 µM
- TGI (BT-549 breast): 9.51 µM
- GI50 (CAKI-1 renal): 1.73 µM
- TGI (CAKI-1 renal): > 100 µM
- GI50 (CCRF-CEM leukemia): 2.55 µM
- TGI (CCRF-CEM leukemia): 18.6 µM
- GI50 (COLO 205 colon): 1.97 µM
- TGI (COLO 205 colon): 7.26 µM
- GI50 (DU-145 prostate): 3.22 µM
- TGI (DU-145 prostate): > 100 µM
- GI50 (EKVX NSCLC): 3.06 µM
- TGI (EKVX NSCLC): > 100 µM
- GI50 (HCC-2998 colon): 2.67 µM
- TGI (HCC-2998 colon): 18.6 µM
- GI50 (HCT-116 colon): 1.22 µM
- TGI (HCT-116 colon): > 100 µM
- GI50 (HCT-15 colon): 2.01 µM
- TGI (HCT-15 colon): > 100 µM
- GI50 (HL-60(TB) leukemia): 2.55 µM
- TGI (HL-60(TB) leukemia): 8.29 µM
- GI50 (HOP-62 NSCLC): 2.23 µM
- TGI (HOP-62 NSCLC): 8.86 µM
- GI50 (HS 578T breast): 2.03 µM
- TGI (HS 578T breast): 9.14 µM
- GI50 (HT29 colon): 3.27 µM
- TGI (HT29 colon): 16.2 µM
- GI50 (IGROV1 ovarian): 2.26 µM
- TGI (IGROV1 ovarian): > 100 µM
- GI50 (K-562 leukemia): 1.76 µM
- TGI (K-562 leukemia): > 100 µM
- GI50 (KM12 colon): 2.36 µM
- TGI (KM12 colon): > 100 µM
- GI50 (LOX IMVI melanoma): 2.34 µM
- TGI (LOX IMVI melanoma): > 100 µM
- GI50 (M14 melanoma): 4.11 µM
- TGI (M14 melanoma): > 100 µM
- GI50 (MALME-3M melanoma): 2.36 µM
- TGI (MALME-3M melanoma): 8.53 µM
- GI50 (MCF7 breast): 2.57 µM
- TGI (MCF7 breast): 22.2 µM
- GI50 (MDA-MB-231 breast): 3.9 µM
- TGI (MDA-MB-231 breast): > 100 µM
- GI50 (MDA-MB-435): 3.72 µM
- TGI (MDA-MB-435): > 100 µM
- GI50 (MDA-MB-468 breast): 0.999 µM
- TGI (MDA-MB-468 breast): 6.09 µM
- GI50 (MOLT-4 leukemia): 2.8 µM
- TGI (MOLT-4 leukemia): > 100 µM
- GI50 (NCI-H23 lung): 2.02 µM
- TGI (NCI-H23 lung): 14.2 µM
- GI50 (NCI-H460 lung): 2.61 µM
- TGI (NCI-H460 lung): > 100 µM
- GI50 (NCI-H522 lung): 1.34 µM
- TGI (NCI-H522 lung): 6.03 µM
- GI50 (OVCAR-3 ovarian): 1.23 µM
- TGI (OVCAR-3 ovarian): 5.31 µM
- GI50 (OVCAR-4 ovarian): 4.29 µM
- TGI (OVCAR-4 ovarian): > 100 µM
- GI50 (OVCAR-5 ovarian): 4.15 µM
- TGI (OVCAR-5 ovarian): > 100 µM
- GI50 (OVCAR-8 ovarian): 2.65 µM
- TGI (OVCAR-8 ovarian): > 100 µM
- GI50 (PC-3 prostate): 4.24 µM
- TGI (PC-3 prostate): > 100 µM
- GI50 (RPMI-8226 leukemia): 2.7 µM
- TGI (RPMI-8226 leukemia): 12.3 µM
- GI50 (RXF 393 renal): 2.18 µM
- TGI (RXF 393 renal): 6.85 µM
- GI50 (SF-268 CNS): 2.85 µM
- TGI (SF-268 CNS): > 100 µM
- GI50 (SF-295 CNS): 3.25 µM
- TGI (SF-295 CNS): > 100 µM
- GI50 (SF-539 CNS): 0.958 µM
- TGI (SF-539 CNS): 7.12 µM
- GI50 (SK-MEL-2 melanoma): 1.53 µM
- TGI (SK-MEL-2 melanoma): 3.77 µM
- GI50 (SK-MEL-28 melanoma): 2.93 µM
- TGI (SK-MEL-28 melanoma): 8.72 µM
- GI50 (SK-MEL-5 melanoma): 1.77 µM
- TGI (SK-MEL-5 melanoma): 4.62 µM
- GI50 (SK-OV-3 ovarian): 1.96 µM
- TGI (SK-OV-3 ovarian): 9.82 µM
- GI50 (SN12C renal): 3 µM
- TGI (SN12C renal): > 100 µM
- GI50 (SNB-19 CNS): 0.999 µM
- TGI (SNB-19 CNS): > 100 µM
- GI50 (SNB-75 CNS): 0.0476 µM
- TGI (SNB-75 CNS): 4.84 µM
- GI50 (SR leukemia): 2.17 µM
- TGI (SR leukemia): 24.9 µM
- GI50 (SW-620 colon): 1.54 µM
- TGI (SW-620 colon): > 100 µM
- GI50 (T-47D breast): 2.01 µM
- TGI (T-47D breast): > 100 µM
- GI50 (TK-10 renal): 3.8 µM
- TGI (TK-10 renal): > 100 µM
- GI50 (U251 CNS): 2.35 µM
- TGI (U251 CNS): > 100 µM
- GI50 (UACC-257 melanoma): 2.81 µM
- TGI (UACC-257 melanoma): > 100 µM
- GI50 (UO-31 renal): 1.87 µM
- TGI (UO-31 renal): 7.21 µM
